Nine molecules from patent US20130217664A1, “NOVEL COMPOUNDS USEFUL FOR THE TREATMENT OF DEGENERATIVE AND INFLAMMATORY DISEASES” (priority 2012, published 2013) can be followed below.

In one experiment the target is T1, human JAK1 (Homo sapiens, UniProt P23458).
T1 construct: catalytic domain, amino acids 866-1154; catalog number PV4774; purchased Invitrogen PV4774
Kind of experiment: JAK1 inhibition assay (polyGT substrate / Ulight-JAK1 peptide). In kind it is biochemical. The conditions noted are these: recombinant human JAK1 catalytic domain; polyGT or Ulight-JAK1 peptide assay. A digest of the protocol:
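Two formats. PolyGT radiometric: 45 min at 30 °C, stopped with phosphoric acid, counted as cpm. Ulight-JAK1 peptide: 60 min at room temperature, stopped with Eu-anti-phosphotyrosine/EDTA, read as RFU. Percent inhibition normalised to vehicle and 10 μM staurosporine.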

In another experiment the test system is CTLL-2 cell line. The experiment in a line: CTLL2 viability assay. In kind it is cell-based. The conditions noted are these: Mus musculus, IL-2 dependent CTLL2 viability, 24 h, ATP-lite. The text has this: The protocol describes the methods to analyse the activity of compounds on their ability to sustain the IL2-dependent viability of CTLL2.
Final DMSO concentration was 0.1%.

The target in a further experiment is T2, human JAK2 (Homo sapiens, UniProt O60674).
T2 construct: catalytic domain (amino acids 808-1132; catalog number PV4210); GST; purchased Invitrogen PV4210
T2 sequence (O60674 808-1132): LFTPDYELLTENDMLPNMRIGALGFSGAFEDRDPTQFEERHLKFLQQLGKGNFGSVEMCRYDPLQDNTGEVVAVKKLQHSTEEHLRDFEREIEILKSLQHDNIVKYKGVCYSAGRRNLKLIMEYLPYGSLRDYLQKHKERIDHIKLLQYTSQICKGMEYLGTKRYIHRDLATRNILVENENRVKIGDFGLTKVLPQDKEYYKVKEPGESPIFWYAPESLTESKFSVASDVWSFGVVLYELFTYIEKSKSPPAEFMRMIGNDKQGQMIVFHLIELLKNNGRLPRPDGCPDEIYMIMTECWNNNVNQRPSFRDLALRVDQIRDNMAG
The experiment in a line: JAK2 inhibition assay (polyGT substrate / Ulight-JAK1 peptide). It is filed as biochemical. The conditions noted are these: recombinant human JAK2 catalytic domain; polyGT or Ulight-JAK1 peptide assay. A digest of the protocol:
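Radiometric: 0.025 mU JAK2 with 2.5 μg polyGT, 1 μM ATP plus ^33P-ATP in MOPS pH 7.5 buffer, 1% DMSO, 90 min at 30° C.; filter counting. Alternative TR-FRET format with Ulight-JAK1 peptide, 60 min at room temperature, Eu-anti-phosphotyrosine detection.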

The next experiment deals with T3, human TYK2 (Homo sapiens, UniProt P29597).
T3 construct: catalytic domain (amino acids 871-1187; catalog number 08-147); purchased Carna Biosciences 08-147
T3 sequence (P29597 871-1187): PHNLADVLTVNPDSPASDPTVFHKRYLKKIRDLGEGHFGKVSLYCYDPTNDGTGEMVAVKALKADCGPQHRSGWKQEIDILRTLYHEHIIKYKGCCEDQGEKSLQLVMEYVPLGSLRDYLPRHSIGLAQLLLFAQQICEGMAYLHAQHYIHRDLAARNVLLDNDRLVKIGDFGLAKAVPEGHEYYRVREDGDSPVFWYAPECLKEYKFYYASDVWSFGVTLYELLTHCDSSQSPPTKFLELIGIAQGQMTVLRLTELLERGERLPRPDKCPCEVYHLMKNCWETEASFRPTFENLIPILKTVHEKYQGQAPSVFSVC
The experiment in a line: TYK2 inhibition assay. The conditions noted are these: recombinant human TYK2 catalytic domain, polyGT substrate. In kind it is biochemical. The procedure, abridged: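 Radiometric kinase reaction run 90 min at 30 °C, stopped with phosphoric acid, washed and scintillation-counted.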

The target of the next experiment is T4, human JAK3 (Homo sapiens, UniProt P52333).
T4 construct: catalytic domain (amino acids 781-1124; catalog number PV3855); purchased Invitrogen PV3855
T4 sequence (P52333 781-1124): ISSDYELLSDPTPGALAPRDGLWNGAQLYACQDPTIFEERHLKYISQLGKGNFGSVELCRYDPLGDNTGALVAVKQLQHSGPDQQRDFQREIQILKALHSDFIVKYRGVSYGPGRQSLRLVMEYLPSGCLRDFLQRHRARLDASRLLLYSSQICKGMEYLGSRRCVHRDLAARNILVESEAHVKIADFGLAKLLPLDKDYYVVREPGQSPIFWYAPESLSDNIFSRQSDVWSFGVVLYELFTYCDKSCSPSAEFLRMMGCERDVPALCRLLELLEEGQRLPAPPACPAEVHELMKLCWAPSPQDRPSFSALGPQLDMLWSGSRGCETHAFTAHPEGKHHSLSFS
The experiment in a line: JAK3 inhibition assay. In kind it is biochemical. The conditions noted are these: recombinant human JAK3 catalytic domain; polyGT substrate. A digest of the protocol: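 Radiometric kinase assay: 0.5 ng JAK3 with 2.5 μg polyGT in Tris pH 7.5/MgCl2 buffer, 1 μM ATP plus 0.25 μCi 33P-γ-ATP, 1% DMSO, 45 min at 30 °C, stopped with phosphoric acid.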

T1 sequence (P23458 866-1154): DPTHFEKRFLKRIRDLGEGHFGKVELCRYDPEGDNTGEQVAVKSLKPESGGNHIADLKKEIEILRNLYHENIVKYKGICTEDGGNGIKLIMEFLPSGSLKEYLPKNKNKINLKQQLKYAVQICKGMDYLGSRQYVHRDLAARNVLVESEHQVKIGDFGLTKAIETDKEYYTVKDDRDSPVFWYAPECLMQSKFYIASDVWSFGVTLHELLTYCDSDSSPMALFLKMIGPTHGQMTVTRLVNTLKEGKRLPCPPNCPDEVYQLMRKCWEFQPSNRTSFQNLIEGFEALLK

`CCc1cc(N2CC[C@@H](F)C2)ncc1N(C)c1cc2c(cn1)ncn2C` [Compound 414, [4-Ethyl-6-((R)-3-fluoro-pyrrolidin-1-yl)-pyridin-3-yl]-methyl-(1-methyl-1H-imidazo[4,5-c]pyridin-6-yl)-amine]: the IC50 (usually the point on the concentration scale where inhibition reaches its midpoint) on human JAK1 is 0.01 to 100 nM; in the experiment with CTLL-2 cell line it was above 1000 nM; at human JAK2 it was 0.01 to 100 nM; at human TYK2 it was 0.01 to 100 nM; on human JAK3, 101 to 500 nM.

With `CCc1cc(N2CC[C@H](F)C2)ncc1N(C)c1cc2c(cn1)ncn2C` [Compound 415, [4-Ethyl-6-((S)-3-fluoro-pyrrolidin-1-yl)-pyridin-3-yl]-methyl-(1-methyl-1H-imidazo[4,5-c]pyridin-6-yl)-amine], the half-inhibitory concentration (IC50) is 0.01 to 100 nM at human JAK1; above 1000 nM in the experiment on CTLL-2 cell line; 0.01 to 100 nM at human JAK2; 0.01 to 100 nM at human TYK2; 0.01 to 100 nM on human JAK3.

In the case of `CCc1cc(CN2CC3(COC3)C2)ccc1N(C)c1cc2c(cn1)ncn2C` [Compound 419, [2-Ethyl-4-(2-oxa-6-aza-spiro[3.3]hept-6-ylmethyl)-phenyl]-methyl-(1-methyl-1H-imidazo[4,5-c]pyridin-6-yl)-amine], the 50% inhibitory concentration (IC50) was 101 to 500 nM at human JAK1; above 1000 nM with CTLL-2 cell line; above 1000 nM at human JAK2; above 1000 nM on human TYK2; above 1000 nM at human JAK3.

Take `CCc1cc(CN2CCC(S(C)(=O)=O)C2)ccc1N(C)c1cc2c(cn1)ncn2C` (stereo not drawn) [Compound 420, [2-Ethyl-4-(3-methanesulfonyl-pyrrolidin-1-ylmethyl)-phenyl]-methyl-(1-methyl-1H-imidazo[4,5-c]pyridin-6-yl)-amine]: the concentration for half-maximal inhibition (IC50) at human JAK1 is 0.01 to 100 nM; with CTLL-2 cell line it was above 1000 nM; on human JAK2, 101 to 500 nM; at human TYK2 it was 101 to 500 nM; on human JAK3 it was above 1000 nM.

In the case of `CCc1cc(CN2CCNC(=O)C2)ccc1N(C)c1cc2c(cn1)ncn2C` [Compound 421, 4-{3-Ethyl-4-[methyl-(1-methyl-1H-imidazo[4,5-c]pyridin-6-yl)-amino]-benzyl}-piperazin-2-one], the IC50 at human JAK1 is 0.01 to 100 nM; with CTLL-2 cell line it was above 1000 nM; at human JAK2, 101 to 500 nM; on human TYK2 it was 0.01 to 100 nM; on human JAK3 it was 501 to 1000 nM.

Take `CCc1cc(CN2CCC(F)(F)CC2)ccc1N(C)c1cc2c(cn1)ncn2C` [Compound 422, [4-(4,4-Difluoro-piperidin-1-ylmethyl)-2-ethyl-phenyl]-methyl-(1-methyl-1H-imidazo[4,5-c]pyridin-6-yl)-amine]: the IC50 was 0.01 to 100 nM on human JAK1; above 1000 nM in the experiment with CTLL-2 cell line; 501 to 1000 nM on human JAK2; 501 to 1000 nM on human TYK2; above 1000 nM at human JAK3.

With `CCc1cc(CNS(N)(=O)=O)ccc1N(C)c1cc2c(cn1)ncn2C` [Compound 423, N-{3-Ethyl-4-[methyl-(1-methyl-1H-imidazo[4,5-c]pyridin-6-yl)-amino]-benzyl}-aminosulfonamide], the half-inhibitory concentration (IC50) is 0.01 to 100 nM on human JAK1; above 1000 nM with CTLL-2 cell line; 0.01 to 100 nM at human JAK2; 0.01 to 100 nM at human TYK2; 0.01 to 100 nM at human JAK3.

Consider `CCc1cc(CNS(=O)(=O)N2CC(F)(F)C2)ccc1N(C)c1cc2c(cn1)ncn2C` [Compound 424, 3,3-Difluoro-azetidine-1-sulfonic acid 3-ethyl-4-[methyl-(1-methyl-1H-imidazo[4,5-c]pyridin-6-yl)-amino]-benzylamide], for which the 50% inhibitory concentration (IC50) on human JAK1 is 0.01 to 100 nM; in the experiment with CTLL-2 cell line it was above 1000 nM; on human JAK2, 0.01 to 100 nM; at human TYK2, 101 to 500 nM; at human JAK3 it was 101 to 500 nM.

Consider `CCc1cc(CNS(=O)(=O)N2CCC(F)(F)C2)ccc1N(C)c1cc2c(cn1)ncn2C` [Compound 425, 3,3-Difluoro-pyrrolidine-1-sulfonic acid 3-ethyl-4-[methyl-(1-methyl-1H-imidazo[4,5-c]pyridin-6-yl)-amino]-benzylamide], for which the IC50 on human JAK1 was 0.01 to 100 nM; in the experiment with CTLL-2 cell line, above 1000 nM; on human JAK2 it was 0.01 to 100 nM; at human TYK2 it was 101 to 500 nM; on human JAK3, 101 to 500 nM.
